# What was measured:
# AfPrx1 = target: T1, AfPrx1 (Aspergillus fumigatus, UniProt Q4WPA3); test: PLA2 assay, [3H]DPPC liposomes, TLC and scintillation; format: biochemical
# T1 construct: gene AFUA_4G08580; cytosolic 1-Cys Prdx
# T1 sequence (Q4WPA3 1-213): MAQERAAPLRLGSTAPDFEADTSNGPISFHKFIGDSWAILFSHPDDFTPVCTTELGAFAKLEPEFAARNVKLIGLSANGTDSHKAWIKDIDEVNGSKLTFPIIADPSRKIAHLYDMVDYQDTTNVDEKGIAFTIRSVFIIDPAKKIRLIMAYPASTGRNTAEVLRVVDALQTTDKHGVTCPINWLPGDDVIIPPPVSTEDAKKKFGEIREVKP
# AfPrxC = target: T2, AfPrxC (Aspergillus fumigatus, UniProt B0Y9D7); test: as above; format: biochemical
# T2 construct: gene AFUB_080670
# T2 sequence (B0Y9D7 47-267): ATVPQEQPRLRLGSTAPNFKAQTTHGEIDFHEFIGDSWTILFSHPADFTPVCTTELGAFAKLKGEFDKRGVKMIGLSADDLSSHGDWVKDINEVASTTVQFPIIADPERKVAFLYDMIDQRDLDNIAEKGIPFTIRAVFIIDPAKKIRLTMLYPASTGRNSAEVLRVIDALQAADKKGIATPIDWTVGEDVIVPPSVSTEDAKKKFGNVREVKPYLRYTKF
structure (smiles),measurement,setting,value
"CCCCCCCCCCCCCCCCOC[C@H](COCC(F)(F)F)OP(=O)(O)OC [MJ33, 1-hexadecyl-3-trifluoro-ethylglycero-sn-2-phosphomethanol]",inhibition at 200 µM,AfPrx1,~85%
same,inhibition at 200 µM,AfPrxC,~85%

# From PMC6466579, “Non-Mammalian Prdx6 Enzymes (Proteins with 1-Cys Prdx Mechanism) Display PLA2 Activity Similar to the Human Orthologue” (Antioxidants, 2019)
